According to PMC9847679, “The anti-breast cancer stem cell properties of gold(I)-non-steroidal anti-inflammatory drug complexes” (Chemical Science, 2022):

Assays:
HMLER-shEcad cells [1] = test: Monolayer cytotoxicity (MTT assay), HMLER-shEcad cells; assay type: cell-based, human; details: 72 h incubation, MTT
Description: (§1) Cell Lines and Cell Culture Conditions. The human mammary epithelial HMLER and HMLER-shEcad cell lines were kindly donated by Prof. R. A. Weinberg (Whitehead Institute, MIT). The human epithelial breast MCF10A, breast adenocarcinoma MDA-MB-231 and MDA-MB-468, murine epithelial breast 4T1, and embryonic kidney HEK 293 cell lines were acquired from American Type Culture Collection (ATCC, Manassas, VA, USA).
(§2) HMLER, HMLER-shEcad, and MCF10A cells were maintained in Mammary Epithelial Cell Growth Medium (MEGM) with supplements and growth factors (BPE, hydrocortisone, hEGF, insulin, and gentamicin/amphotericin-B). MDA-MB-231, MDA-MB-468, 4T1, and HEK 293 cells were maintained in Dulbecco's Modified Eagle's Medium (DMEM) supplemented with fetal bovine serum (10 %) and penicillin/streptomycin (1 %). The cells were grown at 310 K in a humidified atmosphere containing 5% CO2.
(§3) Monolayer Cytotoxicity Studies. Exponentially growing cells were seeded at a density of approximately 5 × 10^3 cells per well in 96-well flat-bottomed microplates and allowed to attach for 24 h prior to addition of compounds. Various concentrations of the test compounds (0.0004-100 μM) were added and incubated for 72 h at 37 °C (total volume 200 μl). Stock solutions of the compounds were prepared as 10 mM DMSO solutions and diluted using cell […]
media. The final concentration of DMSO in each well was ≤1 %. After 72 h, 20 μl of MTT (4 mg mL-1 in PBS) was added to each well and the plates incubated for an additional 4 h at 37 °C. The media/MTT mixture was eliminated and DMSO (100 μl per well) was added to dissolve the formazan precipitates. The optical density was measured at 550 nm using a 96-well multiscanner autoreader. Absorbance values were normalised to (DMSO-containing) control wells and plotted as concentration of test compound versus % cell viability. IC50 values were interpolated from the resulting dose dependent curves. The reported IC50 values are the average of three independent experiments (n = 18). […]
After incubation for 16 […]
h, the fluorescence of the solutions was read at 590 nm (λex = 560 nm). Viable mammospheres reduce the amount of the oxidised TOX8 form (blue) and concurrently increase the amount of the fluorescent TOX8 intermediate (red), indicating the degree of mammosphere cytotoxicity caused by the test compound. […]
Cellular Uptake. To measure the cellular uptake of 1-3 about 1 million HMLER-shEcad cells were treated with 1-3 (0.25 μM) at 37 °C for 24 h. After incubation, the media was removed, the cells were washed with PBS (2 mL × 3) and harvested. The number of cells was counted at this stage, using a haemocytometer. This mitigates any cell death induced by 1-3 at the administered concentration and experimental cell loss. The cellular pellets were dissolved in 65% HNO3 (250 µL) overnight. A cellular pellet of HMLER-shEcad cells treated with 1 was also used to determine the gold content in the nuclear, cytoplasmic and membrane fractions. The Thermo Scientific NE-PER Nuclear and Cytoplasmic Extraction Kit was used to extract and separate the nuclear, cytoplasmic and membrane fractions. The fractions were dissolved in 65% HNO3 (250 µL final volume) overnight. All samples were diluted 17-fold with water and analysed using inductively coupled plasma mass spectrometry (ICP-MS, Thermo Scientific ICAP-Qc quadrupole ICP mass spectrometer). Gold levels are expressed as mass of Au (ng) per million cells. Results are presented as the mean of four determinations for each data point.
Intracellular ROS Assay. […]

4T1 cells = test: Monolayer cytotoxicity (MTT assay), 4T1 cells; assay type: cell-based, murine; details: 72 h incubation
Description: as §1, §2, §3
media. The final concentration of DMSO in each well was ≤1 %. […] The optical density was measured at 550 nm using a 96-well multiscanner autoreader. Absorbance values were normalised to (DMSO-containing) control wells and plotted as concentration of test compound versus % cell viability. […]
h, the fluorescence of the solutions was read at 590 nm (λex = 560 nm). […]
Cellular Uptake. […] The number of cells was counted at this stage, using a haemocytometer. […] All samples were diluted 17-fold with water and analysed using inductively coupled plasma mass spectrometry (ICP-MS, Thermo Scientific ICAP-Qc quadrupole ICP mass spectrometer). Gold levels are expressed as mass of Au (ng) per million cells. […]

[2] = Tissue biodistribution of gold; assay type: in vivo, BALB/c mice; details: 4T1-bearing mice after 16 days treatment, 10 mg kg−1 IP
Experimental: tumour-size and body-weight measurements were performed three days a week, and the mice were euthanised after 16 days (n = 5 for 1 and n = 5 for vehicle control).
Tissue biodistribution of 1. Following the treatment o f mice with 1 for 16 days, each tissue (heart, lung, liver, spleen, kidney, and tumo ur) was excised from euthanised mice (n = 3).
The tissues were boiled for 5 h at 60 °C with 70% nitric acid (0.5 mL) , and then boiled again at 60 °C for 10 min with 35% hydrogen peroxide (0.5 mL). The solutions turned yellow, and were diluted as needed to measure the gold content using a Graphite Furnace Atomic Absorption Spectrometer. Before measuring all samples, th e standard solution curves were […]
Hematoxylin and eosin staining. The mice used in the in vivo comparative experiment of 1 and the vehicle control were sacrificed at day 16 post tumo ur cells (4T1) injection. The tissues (liver, kidney, and tumour) were fixed in freshly prepared paraformaldehyde (4% in PBS) for 24 h and processed for paraffin sectioning. Tissue sections of 5 µm were stained with hematoxylin and eosin and used for histological examination. A total of 3 sections per tissue (spanning the full depth of the tissue) were examined and photographed using a Nikon

HMLER-shEcad cells [3] = test: FITC Annexin V-propidium iodide assay; assay type: cell-based, human; details: IC50 value ×2, 48 h
Experimental: Annexin V-Propidium Iodide Assay. HMLER-shEcad cells were incubated with and […]
harvested from adherent cultures by trypsinisation. The FITC Annexin V/Dead Cell Apoptosis Kit was used. The manufacture’s (Thermo Fisher Scientific) protocol was followed to carry out this experiment.
1× Annexin binding buffer (100 µL) (10 mM HEPES, 140 mM NaCl, 2.5 mM CaCl2, pH 7.4), then 5 µL FITC Annexin V and 1 µL PI (100 µg/ mL) were added to each sample and incubated at room temperature for 15 min. After which more 1× Annexin binding buffer (400 µL) was added while gently mixing. The cells were analysed using a FACSCanto II flow cytometer (BD Biosciences) (10,000 events per sample were acquired) at the University of Leicester FACS Facility. The FL1 channel was used to assess Annexin V binding and the FL2 channel was used to assess PI uptake. Cell populations were analysed using the FlowJo […]
ice-cold methanol (for 30 min), and suspended in PBS (200 μL). […]
COX-2 Inhibition Enzyme Immunoassay (EIA). […]
(ovine) Inhibitor Screening Assay (Cayman Chemicals).” The assay was performed according to the manuf acturer’s instructions using a 96-well plate set up.

[4] = Reaction with thiol-containing biomolecules (1H and 31P NMR); details: 10 mM in DMSO-d6, 37 °C, 72 h
Experimental: As the mechanism of toxicity of many gold(I) complexes is associated to their interaction with thiol groups in proteins,[23] the reaction of 1 with N-acetylcysteine (NAC) and glutathione (GSH), model thiol-containing biomolecules, was probed using ^1H and ^31P{^1H} NMR spectroscopy studies (over 72 h at 37 °C). […] The ^31P{^1H} NMR studies also indicated the immediate formation of [Au^I(NAC)(PPh3)] or [Au^I(GSH)(PPh3)] (Fig. S50–S51 ^†). [Au^I(NAC)(PPh3)] and [Au^I(GSH)(PPh3)] were independently prepared in situ by reacting [Au^I(acac)(PPh3)][58] with NAC or GSH in DMSO-d6, to confirm the abovementioned assignments.

## COc1ccc2c(c1)c(CC(=O)[O][Au][PH](c1ccccc1)(c1ccccc1)c1ccccc1)c(C)n2C(=O)c1ccc(Cl)cc1 [complex 1]
HMLER-shEcad cells [1]
  IC50: 56 ± 1 nM
4T1 cells
  IC50: 2240 ± 110 nM
[2]
  gold content in the kidney: 15 μg g^−1 of tissue
  gold content in tumour tissue: 3 μg g^−1 of tissue
HMLER-shEcad cells [3]
  apoptosis induction: induced large populations of cells to undergo late-stage apoptosis
[4]
  reaction with stoichiometric NAC or GSH: The reaction occurred immediately
